Measured values taken from patent US11154529B2, “Phosphaplatin liquid formulations” (Phosplatin Therapeutics Inc., priority 2016, dated 2021).

Assay: Ready-to-use formulation stability at 25° C./60% RH, 5 mg/mL (R,R)-pyrodach-2 in 10 mM Bicarbonate Buffer at pH 8.6, 10 mL vials
Format: physicochemical

SMILES: O=P1(O)OP(=O)(O)[O][Pt]2([NH][C@@H]3CCCC[C@H]3[NH]2)[O]1 (stereo partly drawn) [(R,R)-pyrodach-2, (R,R)-trans-1,2-cyclohexanediamine-(dihydrogenpyrophosphato)platinum(II)]
- Potency (Assay) (1 month): 98.9%
- Purity (% Area) (1 month): 97.44%
- Unknown Impurities RRT~0.29 (1 month): 0.16%
- Unknown Impurities RRT~0.42 (1 month): 0.21%
- Unknown Impurities RRT~0.49 (1 month): 0.75%
- Unknown Impurities RRT~0.59 (1 month): 0.15%
- Unknown Impurities RRT~0.73 (1 month): 1.03%
- Unknown Impurities RRT~1.82 (1 month): ND (ND = Not Detected, or <0.05%)
- Unknown Impurities RRT~2.85 (1 month): ND (ND = Not Detected, or <0.05%)
- Unknown Impurities RRT~3.00 (1 month): ND (ND = Not Detected, or <0.05%)
- Unknown Impurities RRT~3.15 (1 month): ND (ND = Not Detected, or <0.05%)
- Unknown Impurities RRT~3.30 (1 month): ND (ND = Not Detected, or <0.05%)
- Unknown Impurities RRT~3.45 (1 month): ND (ND = Not Detected, or <0.05%)
- Unknown Impurities RRT~3.74 (1 month): 0.08%
- Unknown Impurities RRT~4.27 (1 month): ND (ND = Not Detected, or <0.05%)
- Unknown Impurities RRT~4.99 (1 month): ND (ND = Not Detected, or <0.05%)
- pH (1 month): 8.68
- Potency (Assay) (1 week): 101.7%
- Purity (% Area) (1 week): 97.74%
- Unknown Impurities RRT~0.29 (1 week): 0.11%
- Unknown Impurities RRT~0.42 (1 week): 0.05%
- Unknown Impurities RRT~0.49 (1 week): 0.78%
- Unknown Impurities RRT~0.59 (1 week): 0.06%
- Unknown Impurities RRT~0.73 (1 week): 1.12%
- Unknown Impurities RRT~1.82 (1 week): ND (ND = Not Detected, or <0.05%)
- Unknown Impurities RRT~2.85 (1 week): ND (ND = Not Detected, or <0.05%)
- Unknown Impurities RRT~3.00 (1 week): ND (ND = Not Detected, or <0.05%)
- Unknown Impurities RRT~3.15 (1 week): ND (ND = Not Detected, or <0.05%)
- Unknown Impurities RRT~3.30 (1 week): ND (ND = Not Detected, or <0.05%)
- Unknown Impurities RRT~3.45 (1 week): ND (ND = Not Detected, or <0.05%)
- Unknown Impurities RRT~3.74 (1 week): ND (ND = Not Detected, or <0.05%)
- Unknown Impurities RRT~4.27 (1 week): ND (ND = Not Detected, or <0.05%)
- Unknown Impurities RRT~4.99 (1 week): ND (ND = Not Detected, or <0.05%)
- pH (1 week): 8.57
- Potency (Assay) (2 month): 100.4%
- Purity (% Area) (2 month): 96.45%
- Unknown Impurities RRT~0.29 (2 month): 0.19%
- Unknown Impurities RRT~0.42 (2 month): 0.56%
- Unknown Impurities RRT~0.49 (2 month): 0.79%
- Unknown Impurities RRT~0.59 (2 month): 0.26%
- Unknown Impurities RRT~0.73 (2 month): 0.97%
- Unknown Impurities RRT~1.82 (2 month): ND (ND = Not Detected, or <0.05%)
- Unknown Impurities RRT~2.85 (2 month): 0.12%
- Unknown Impurities RRT~3.00 (2 month): ND (ND = Not Detected, or <0.05%)
- Unknown Impurities RRT~3.15 (2 month): ND (ND = Not Detected, or <0.05%)
- Unknown Impurities RRT~3.30 (2 month): ND (ND = Not Detected, or <0.05%)
- Unknown Impurities RRT~3.45 (2 month): 0.05%
- Unknown Impurities RRT~3.74 (2 month): 0.31%
- Unknown Impurities RRT~4.27 (2 month): ND (ND = Not Detected, or <0.05%)
- Unknown Impurities RRT~4.99 (2 month): 0.07%
- pH (2 month): 8.73
- Potency (Assay) (2 week): 99.9%
- Purity (% Area) (2 week): 97.77%
- Unknown Impurities RRT~0.29 (2 week): 0.12%
- Unknown Impurities RRT~0.42 (2 week): 0.10%
- Unknown Impurities RRT~0.49 (2 week): 0.77%
- Unknown Impurities RRT~0.59 (2 week): ND (ND = Not Detected, or <0.05%)
- Unknown Impurities RRT~0.73 (2 week): 1.17%
- Unknown Impurities RRT~1.82 (2 week): ND (ND = Not Detected, or <0.05%)
- Unknown Impurities RRT~2.85 (2 week): ND (ND = Not Detected, or <0.05%)
- Unknown Impurities RRT~3.00 (2 week): ND (ND = Not Detected, or <0.05%)
- Unknown Impurities RRT~3.15 (2 week): ND (ND = Not Detected, or <0.05%)
- Unknown Impurities RRT~3.30 (2 week): ND (ND = Not Detected, or <0.05%)
- Unknown Impurities RRT~3.45 (2 week): ND (ND = Not Detected, or <0.05%)
- Unknown Impurities RRT~3.74 (2 week): ND (ND = Not Detected, or <0.05%)
- Unknown Impurities RRT~4.27 (2 week): ND (ND = Not Detected, or <0.05%)
- Unknown Impurities RRT~4.99 (2 week): ND (ND = Not Detected, or <0.05%)
- pH (2 week): 8.64
- Potency (Assay) (3 month): 101.6%
- Purity (% Area) (3 month): 96.08%
- Unknown Impurities RRT~0.29 (3 month): 0.27%
- Unknown Impurities RRT~0.42 (3 month): 0.76%
- Unknown Impurities RRT~0.49 (3 month): 0.78%
- Unknown Impurities RRT~0.59 (3 month): 0.25%
- Unknown Impurities RRT~0.73 (3 month): 0.92%
- Unknown Impurities RRT~1.82 (3 month): ND (ND = Not Detected, or <0.05%)
- Unknown Impurities RRT~2.85 (3 month): 0.17%
- Unknown Impurities RRT~3.00 (3 month): ND (ND = Not Detected, or <0.05%)
- Unknown Impurities RRT~3.15 (3 month): ND (ND = Not Detected, or <0.05%)
- Unknown Impurities RRT~3.30 (3 month): ND (ND = Not Detected, or <0.05%)
- Unknown Impurities RRT~3.45 (3 month): ND (ND = Not Detected, or <0.05%)
- Unknown Impurities RRT~3.74 (3 month): 0.40%
- Unknown Impurities RRT~4.27 (3 month): 0.06%
- Unknown Impurities RRT~4.99 (3 month): 0.14%
- pH (3 month): 9.01
- Potency (Assay) (3 week): 100.3%
- Purity (% Area) (3 week): 97.33%
- Unknown Impurities RRT~0.29 (3 week): 0.16%
- Unknown Impurities RRT~0.42 (3 week): 0.15%
- Unknown Impurities RRT~0.49 (3 week): 0.76%
- Unknown Impurities RRT~0.59 (3 week): 0.12%
- Unknown Impurities RRT~0.73 (3 week): 1.26%
- Unknown Impurities RRT~1.82 (3 week): ND (ND = Not Detected, or <0.05%)
- Unknown Impurities RRT~2.85 (3 week): ND (ND = Not Detected, or <0.05%)
- Unknown Impurities RRT~3.00 (3 week): ND (ND = Not Detected, or <0.05%)
- Unknown Impurities RRT~3.15 (3 week): ND (ND = Not Detected, or <0.05%)
- Unknown Impurities RRT~3.30 (3 week): ND (ND = Not Detected, or <0.05%)
- Unknown Impurities RRT~3.45 (3 week): ND (ND = Not Detected, or <0.05%)
- Unknown Impurities RRT~3.74 (3 week): 0.06%
- Unknown Impurities RRT~4.27 (3 week): ND (ND = Not Detected, or <0.05%)
- Unknown Impurities RRT~4.99 (3 week): ND (ND = Not Detected, or <0.05%)
- pH (3 week): 8.67
- Potency (Assay) (4 month): 103.0%
- Purity (% Area) (4 month): 95.98%
- Unknown Impurities RRT~0.29 (4 month): 0.16%
- Unknown Impurities RRT~0.42 (4 month): 0.96%
- Unknown Impurities RRT~0.49 (4 month): 0.94%
- Unknown Impurities RRT~0.59 (4 month): 0.17%
- Unknown Impurities RRT~0.73 (4 month): 0.73%
- Unknown Impurities RRT~1.82 (4 month): ND (ND = Not Detected, or <0.05%)
- Unknown Impurities RRT~2.85 (4 month): 0.17%
- Unknown Impurities RRT~3.00 (4 month): ND (ND = Not Detected, or <0.05%)
- Unknown Impurities RRT~3.15 (4 month): ND (ND = Not Detected, or <0.05%)
- Unknown Impurities RRT~3.30 (4 month): ND (ND = Not Detected, or <0.05%)
- Unknown Impurities RRT~3.45 (4 month): ND (ND = Not Detected, or <0.05%)
- Unknown Impurities RRT~3.74 (4 month): 0.58%
- Unknown Impurities RRT~4.27 (4 month): 0.06%
- Unknown Impurities RRT~4.99 (4 month): 0.20%
- pH (4 month): 8.90
- Potency (Assay) (6 month): 99.2%
- Purity (% Area) (6 month): 95.03%
- Unknown Impurities RRT~0.29 (6 month): 0.22%
- Unknown Impurities RRT~0.42 (6 month): 1.29%
- Unknown Impurities RRT~0.49 (6 month): 0.80%
- Unknown Impurities RRT~0.59 (6 month): 0.32%
- Unknown Impurities RRT~0.73 (6 month): 0.82%
- Unknown Impurities RRT~1.82 (6 month): ND (ND = Not Detected, or <0.05%)
- Unknown Impurities RRT~2.85 (6 month): 0.15%
- Unknown Impurities RRT~3.00 (6 month): 0.07%
- Unknown Impurities RRT~3.15 (6 month): ND (ND = Not Detected, or <0.05%)
- Unknown Impurities RRT~3.30 (6 month): 0.05%
- Unknown Impurities RRT~3.45 (6 month): ND (ND = Not Detected, or <0.05%)
- Unknown Impurities RRT~3.74 (6 month): 0.69%
- Unknown Impurities RRT~4.27 (6 month): 0.08%
- Unknown Impurities RRT~4.99 (6 month): 0.36%
- pH (6 month): 8.93
- Potency (Assay) (9 month): 100.3%
- Purity (% Area) (9 month): 93.82%
- Unknown Impurities RRT~0.29 (9 month): 0.15%
- Unknown Impurities RRT~0.42 (9 month): 1.88%
- Unknown Impurities RRT~0.49 (9 month): 0.84%
- Unknown Impurities RRT~0.59 (9 month): 0.32%
- Unknown Impurities RRT~0.73 (9 month): 0.43%
- Unknown Impurities RRT~1.82 (9 month): 0.05%
- Unknown Impurities RRT~2.85 (9 month): 0.32%
- Unknown Impurities RRT~3.00 (9 month): ND (ND = Not Detected, or <0.05%)
- Unknown Impurities RRT~3.15 (9 month): 0.07%
- Unknown Impurities RRT~3.30 (9 month): 0.10%
- Unknown Impurities RRT~3.45 (9 month): 0.06%
- Unknown Impurities RRT~3.74 (9 month): 0.88%
- Unknown Impurities RRT~4.27 (9 month): 0.13%
- Unknown Impurities RRT~4.99 (9 month): 0.66%
- pH (9 month): 9.08
- Potency (Assay) (12 month): 98.4%
- Purity (% Area) (12 month): 92.23%
- Unknown Impurities RRT~0.29 (12 month): 0.14%
- Unknown Impurities RRT~0.42 (12 month): 2.20%
- Unknown Impurities RRT~0.49 (12 month): 0.86%
- Unknown Impurities RRT~0.59 (12 month): 0.32%
- Unknown Impurities RRT~0.73 (12 month): 0.97%
- Unknown Impurities RRT~1.82 (12 month): 0.06%
- Unknown Impurities RRT~2.85 (12 month): 0.37%
- Unknown Impurities RRT~3.00 (12 month): 0.06%
- Unknown Impurities RRT~3.15 (12 month): 0.06%
- Unknown Impurities RRT~3.30 (12 month): 0.12%
- Unknown Impurities RRT~3.45 (12 month): 0.05%
- Unknown Impurities RRT~3.74 (12 month): 1.07%
- Unknown Impurities RRT~4.27 (12 month): 0.15%
- Unknown Impurities RRT~4.99 (12 month): 1.02%
- pH (12 month): 9.07
- Potency (Assay) (Initial): 100.3%
- Purity (% Area) (Initial): 98.04%
- Unknown Impurities RRT~0.29 (Initial): 0.11%
- Unknown Impurities RRT~0.42 (Initial): ND (ND = Not Detected, or <0.05%)
- Unknown Impurities RRT~0.49 (Initial): 0.62%
- Unknown Impurities RRT~0.59 (Initial): ND (ND = Not Detected, or <0.05%)
- Unknown Impurities RRT~0.73 (Initial): 1.05%
- Unknown Impurities RRT~1.82 (Initial): ND (ND = Not Detected, or <0.05%)
- Unknown Impurities RRT~2.85 (Initial): ND (ND = Not Detected, or <0.05%)
- Unknown Impurities RRT~3.00 (Initial): ND (ND = Not Detected, or <0.05%)
- Unknown Impurities RRT~3.15 (Initial): ND (ND = Not Detected, or <0.05%)
- Unknown Impurities RRT~3.30 (Initial): ND (ND = Not Detected, or <0.05%)
- Unknown Impurities RRT~3.45 (Initial): ND (ND = Not Detected, or <0.05%)
- Unknown Impurities RRT~3.74 (Initial): ND (ND = Not Detected, or <0.05%)
- Unknown Impurities RRT~4.27 (Initial): ND (ND = Not Detected, or <0.05%)
- Unknown Impurities RRT~4.99 (Initial): ND (ND = Not Detected, or <0.05%)
- pH (Initial): 8.60
